{"source": "BindingDB's records for doi:10.1016/j.bmcl.2017.04.068", "about": "(Beijing Institute of Pharmacology & Toxicology, 2017)", "data": [{"assay": "Inhibition of rilpivirine-resistant HIV1 NL4-3 reverse transcriptase E138K mutant infected in human TZM-b1 cells after 2 days by bright Glo-luciferase reporter gene assay", "units": {"EC50": "nM"}, "values": [{"smiles": "Cc1cc(/C=C/C#N)cc(C)c1Oc1cc(Nc2ccc(C#N)cc2)c(N)cc1C(=O)OCCC#N", "EC50": 2.9}, {"smiles": "Cc1cc(/C=C/C#N)cc(C)c1Oc1cc(Nc2ccc(C#N)cc2)c(N)cc1C(=O)NCCCl", "EC50": 8.5}, {"smiles": "Cc1cc(/C=C/C#N)cc(C)c1Oc1cc(Nc2ccc(C#N)cc2)c(N)cc1C(=O)N1CC1", "EC50": 8.7}, {"smiles": "COCCOC(=O)c1cc(N)c(Nc2ccc(C#N)cc2)cc1Oc1c(C)cc(/C=C/C#N)cc1C", "EC50": 4.6}, {"smiles": "Cc1cc(/C=C/C#N)cc(C)c1Oc1cc(Nc2ccc(C#N)cc2)c(N)cc1C(=O)NCCCO", "EC50": 23}]}]}
